In brackets after ≈: the same amount, converted by molar mass. Where two headings read alike, the source gives them in different places.
How the values were obtained:
Assay type in all cases: cell-based
E. coli ESBL 4 = assay: Broth microdilution MIC (strain enzymes: CTX-M15, TEM-1); settings: Escherichia coli, ESBL4, alone
K. pneumoniae 115468 = assay: Broth microdilution MIC (strain enzymes: TEM-1); settings: Klebsiella pneumoniae, 115468, alone
E. coli SI-NO36 = assay: Broth microdilution MIC (strain enzymes: SHV-11, TEM-1); settings: Escherichia coli, SINO36, alone
E. coli ESBL 2 = assay: Broth microdilution MIC (strain enzymes: TEM-1); settings: Escherichia coli, ESBL2, alone
K. pneumoniae 3151 = assay: Broth microdilution MIC (strain enzymes: SHV-12, TEM-1); settings: Klebsiella pneumoniae, 3151, alone
K. pneumoniae ESBL 7 #2 = assay: Broth microdilution MIC (strain enzymes: SHV-12, CTX-M15, TEM-1); settings: Klebsiella pneumoniae, alone
K. pneumoniae SI-KP NO30 = assay: Broth microdilution MIC (strain enzymes: TEM-26b, SHV-60, SHV-26); settings: Klebsiella pneumoniae, SIKPNO30, alone
K. pneumoniae KPN 508 = assay: Broth microdilution MIC (strain enzymes: SHV-7, TEM-1); settings: Klebsiella pneumoniae, KPN508, alone
K. pneumoniae 304487 = assay: Broth microdilution MIC (strain enzymes: SHV-12,TEM-1); settings: Klebsiella pneumoniae, 304487, alone
K. pneumoniae KI (KCl) = assay: Broth microdilution MIC (strain enzymes: TEM-10); settings: Klebsiella pneumoniae, alone
E. coli 25922 = assay: Broth microdilution MIC (strain enzymes: None detected); settings: Escherichia coli, 25922, alone
E. coli SI-LP377 = assay: microbe, parasite or virus in culture; settings: Escherichia coli
E. coli Si-FDL-GES = assay: microbe, parasite or virus in culture; settings: Escherichia coli
E. coli 1924 = assay: Broth microdilution MIC (strain enzymes: TEM-12); settings: Escherichia coli, 1924, alone
K. pneumoniae 153239 = assay: Broth microdilution MIC (strain enzymes: SHV-11, TEM-1); settings: Klebsiella pneumoniae, 153239, alone
K. pneumoniae KP 8 = assay: Broth microdilution MIC (strain enzymes: TEM-10, TEM-1, CTX-M15); settings: Klebsiella pneumoniae, KP8, alone
K. pneumoniae ESBL 8 #1 = assay: Broth microdilution MIC (strain enzymes: TEM-1, SHV-12); settings: Klebsiella pneumoniae, alone
E. coli SI-AIRT-4 = assay: Broth microdilution MIC (strain enzymes: TEM-1); settings: Escherichia coli, SIAIRT4, alone
K. pneumoniae KP 4 = assay: Broth microdilution MIC (strain enzymes: SHV-2a, SHV-5, TEM-1); settings: Klebsiella pneumoniae, KP4, alone
K. pneumoniae ESBL 7 #1 = assay: Broth microdilution MIC (strain enzymes: SHV-12, TEM-1); settings: Klebsiella pneumoniae, alone
K. pneumoniae BAA 1705 = assay: Broth microdilution MIC (strain KPC-producing); settings: Klebsiella pneumoniae, BAA1705, alone
E. coli SI-M004 = assay: Broth microdilution MIC (strain enzymes: SHV-2, GES-12); settings: Escherichia coli, SIM004, alone
E. coli SI-V502 = assay: Broth microdilution MIC (strain enzymes: TEM-29, CTX-M15); settings: Escherichia coli, SIV502, alone
E. coli ESBL 5 = assay: Broth microdilution MIC (strain enzymes: CTX-M15, TEM-1); settings: Escherichia coli, ESBL5, alone
K. pneumoniae KP 3 = assay: Broth microdilution MIC (strain enzymes: SHV-1, TEM-1); settings: Klebsiella pneumoniae, KP3, alone
E. coli 3174 = assay: Broth microdilution MIC (strain enzymes: TEM-1, CTXM-15); settings: Escherichia coli, 3174, alone
E. coli BAS 1 = assay: Broth microdilution MIC (strain enzymes: none detected); settings: Escherichia coli, BAS1, alone
E. coli 2150 = assay: Broth microdilution MIC (strain enzymes: SHV-3, TEM-1); settings: Escherichia coli, 2150, alone
K. oxytoca 496 #2 = assay: Broth microdilution MIC (strain enzymes: SHV-105, TEM-1); settings: Klebsiella oxytoca, alone
K. pneumoniae ESBL 10 = assay: Broth microdilution MIC (strain enzymes: SHV-12, TEM-1); settings: Klebsiella pneumoniae, ESBL10, alone
E. coli SI-PBLII = assay: Broth microdilution MIC (strain enzymes: CTX-M2, TEM-1); settings: Escherichia coli, alone
E. coli 3327 = assay: Broth microdilution MIC (strain enzymes: TEM-1, SHV-12); settings: Escherichia coli, 3327, alone
K. pneumoniae 319478 = assay: Broth microdilution MIC (strain enzymes: SHV-12, CTX-M3 and TEM-1); settings: Klebsiella pneumoniae, 319478, alone
K. oxytoca 176877 = assay: Broth microdilution MIC (strain enzymes: SHV-105); settings: Klebsiella oxytoca, 176877, alone
K. pneumoniae 11/23 LF#2 = assay: microbe, parasite or virus in culture; settings: Klebsiella pneumoniae
K. pneumoniae 170375 = assay: Broth microdilution MIC (strain enzymes: SHV-12, CTX-M15 and TEM-1); settings: Klebsiella pneumoniae, 170375, alone
K. pneumoniae 329633 = assay: Broth microdilution MIC (strain enzymes: SHV-5, TEM-1); settings: Klebsiella pneumoniae, 329633, alone
K. oxytoca 169219 = assay: Broth microdilution MIC (strain enzymes: TEM-1, CTXM-15); settings: Klebsiella oxytoca, 169219, alone
[1] = tested on: panel of ESBL-producing Enterobacteriaceae (40 strains); assay: Broth microdilution MIC50/MIC90 summary over the panel
K. pneumoniae ESBL 8 #2 = assay: Broth microdilution MIC (strain enzymes: SHV-12, TEM-1); settings: Klebsiella pneumoniae, alone
E. coli 2806 = assay: as above; settings: Escherichia coli, 2806, alone
[2] = read-out: MIC of cefdinir (CDR)
[3] = read-out: MIC of cefixime (CFM)

In the case of `C=CC1=C(C(=O)O)N2C(=O)[C@@H](NC(=O)/C(=N\O)c3csc(N)n3)[C@H]2SC1` [Cefdinir, cefdinir, reference compound], the MIC (E. coli ESBL 4; [2]) was greater than 32 µg/mL, the MIC (K. pneumoniae 115468; [2]) was 8 µg/mL and the MIC (E. coli SI-NO36; [2]) was 4 µg/mL. For the same molecule, the MIC (E. coli ESBL 2; [2]) was greater than 32 µg/mL, the MIC (K. pneumoniae 3151; [2]) was greater than 32 µg/mL and the MIC (K. pneumoniae ESBL 7 #2; [2]) was greater than 32 µg/mL. The MIC (K. pneumoniae SI-KP NO30; [2]) was 0.5 µg/mL, the MIC (K. pneumoniae KPN 508; [2]) was 32 µg/mL and the MIC (K. pneumoniae 304487; [2]) was 8 µg/mL. For the same molecule, the MIC (K. pneumoniae KI (KCl); [2]) was 1 µg/mL, the MIC (E. coli 25922; [2]) was 0.5 µg/mL and the MIC (E. coli SI-LP377; SILP377, read-out: MIC of cefdinir (CDR)) was greater than 32 µg/mL. For the same molecule, the MIC (E. coli Si-FDL-GES; [2]) was greater than 32 µg/mL, the MIC (E. coli 1924; [2]) was 2 µg/mL and the MIC (K. pneumoniae 153239; [2]) was 2 µg/mL. The MIC (K. pneumoniae KP 8; [2]) was 0.5 µg/mL, the MIC (K. pneumoniae ESBL 8 #1; [2]) was 16 µg/mL and the MIC (E. coli SI-AIRT-4; [2]) was 0.25 µg/mL. The MIC (K. pneumoniae KP 4; [2]) was 8 µg/mL, the MIC (K. pneumoniae ESBL 7 #1; [2]) was 32 µg/mL and the MIC (K. pneumoniae BAA 1705; [2]) was greater than 32 µg/mL. For the same molecule, the MIC (E. coli SI-M004; [2]) was 32 µg/mL, the MIC (E. coli SI-V502; [2]) was 2 µg/mL and the MIC (E. coli ESBL 5; [2]) was greater than 32 µg/mL. For the same molecule, the MIC (K. pneumoniae KP 3; [2]) was 4 µg/mL, the MIC (E. coli 3174; [2]) was 1 µg/mL and the MIC (E. coli BAS 1; [2]) was greater than 32 µg/mL. It also gave an MIC (E. coli 2150; [2]) greater than 32 µg/mL, an MIC (K. oxytoca 496 #2; [2]) of 16 µg/mL and an MIC (K. pneumoniae ESBL 10; [2]) of 16 µg/mL. It also gave an MIC (E. coli SI-PBLII; [2]) of 2 µg/mL, an MIC (E. coli 3327; [2]) of 16 µg/mL and an MIC (K. pneumoniae 319478; [2]) greater than 32 µg/mL. The MIC (K. oxytoca 176877; [2]) was 8 µg/mL, the MIC (K. pneumoniae 11/23 LF#2; [2]) was 2 µg/mL and the MIC (K. pneumoniae 170375; [2]) was greater than 32 µg/mL. For the same molecule, the MIC (K. pneumoniae 329633; [2]) was 16 µg/mL, the MIC (K. oxytoca 169219; [2]) was greater than 32 µg/mL and the MIC50 ([1]; read-out: Cefdinir MIC50) was 16 µg/mL (≈ 40.5 µM). For the same molecule, the MIC90 ([1]; read-out: Cefdinir MIC90) was greater than 32 µg/mL, the MIC (K. pneumoniae ESBL 8 #2; [2]) was 16 µg/mL and the MIC (E. coli 2806; [2]) was 4 µg/mL.
Work on `C=CC1=C(C(=O)O)N2C(=O)[C@@H](NC(=O)/C(=N\OCC(=O)O)c3csc(N)n3)[C@H]2SC1` [Cefixime, cefixime, reference compound] yielded an MIC (E. coli ESBL 4; [3]) greater than 32 µg/mL, an MIC (K. pneumoniae 115468; [3]) greater than 32 µg/mL and an MIC (E. coli SI-NO36; [3]) of 1 µg/mL. For the same molecule, the MIC (E. coli ESBL 2; [3]) was greater than 32 µg/mL, the MIC (K. pneumoniae 3151; [3]) was greater than 32 µg/mL and the MIC (K. pneumoniae ESBL 7 #2; [3]) was greater than 32 µg/mL. The MIC (K. pneumoniae SI-KP NO30; [3]) was greater than 32 µg/mL, the MIC (K. pneumoniae KPN 508; [3]) was greater than 32 µg/mL and the MIC (K. pneumoniae 304487; [3]) was greater than 32 µg/mL. The MIC (K. pneumoniae KI (KCl); [3]) was 32 µg/mL, the MIC (E. coli 25922; [3]) was 1 µg/mL and the MIC (E. coli SI-LP377; SILP377, read-out: MIC of cefixime (CFM)) was greater than 32 µg/mL. It also gave an MIC (E. coli Si-FDL-GES; [3]) of 2 µg/mL, an MIC (E. coli 1924; [3]) of 2 µg/mL and an MIC (K. pneumoniae 153239; [3]) of 0.5 µg/mL. The MIC (K. pneumoniae KP 8; [3]) was greater than 32 µg/mL, the MIC (K. pneumoniae ESBL 8 #1; [3]) was greater than 32 µg/mL and the MIC (E. coli SI-AIRT-4; [3]) was 0.5 µg/mL. It also gave an MIC (K. pneumoniae KP 4; [3]) greater than 32 µg/mL, an MIC (K. pneumoniae ESBL 7 #1; [3]) greater than 32 µg/mL and an MIC (K. pneumoniae BAA 1705; [3]) greater than 32 µg/mL. It also gave an MIC (E. coli SI-M004; [3]) greater than 32 µg/mL, an MIC (E. coli SI-V502; [3]) of 2 µg/mL and an MIC (E. coli ESBL 5; [3]) greater than 32 µg/mL. It also gave an MIC (K. pneumoniae KP 3; [3]) greater than 32 µg/mL, an MIC (E. coli 3174; [3]) of 0.5 µg/mL and an MIC (E. coli BAS 1; [3]) greater than 32 µg/mL. It also gave an MIC (E. coli 2150; [3]) greater than 32 µg/mL, an MIC (K. oxytoca 496 #2; [3]) of 32 µg/mL and an MIC (K. pneumoniae ESBL 10; [3]) greater than 32 µg/mL. The MIC (E. coli SI-PBLII; [3]) was 1 µg/mL, the MIC (E. coli 3327; [3]) was greater than 32 µg/mL and the MIC (K. pneumoniae 319478; [3]) was greater than 32 µg/mL. For the same molecule, the MIC (K. oxytoca 176877; [3]) was greater than 32 µg/mL, the MIC (K. pneumoniae 11/23 LF#2; [3]) was greater than 32 µg/mL and the MIC (K. pneumoniae 170375; [3]) was greater than 32 µg/mL. The MIC (K. pneumoniae 329633; [3]) was greater than 32 µg/mL, the MIC (K. oxytoca 169219; [3]) was greater than 32 µg/mL and the MIC50 ([1]; read-out: Cefixime MIC50) was greater than 32 µg/mL. For the same molecule, the MIC90 ([1]; read-out: Cefixime MIC90) was greater than 32 µg/mL, the MIC (K. pneumoniae ESBL 8 #2; [3]) was greater than 32 µg/mL and the MIC (E. coli 2806; [3]) was 32 µg/mL.

Reference: patent publication US12544395B2, “Combination compositions comprising a beta-lactamase inhibitor and uses thereof” (priority 2018, dated 2026)
